Source: patent publication US7566718B2, “Amine-linked pyridyl and phenyl substituted piperazine-piperidines with CXCR3 antagonist activity” (Schering Corporation, priority 2005, dated 2009)

These compounds were tested against T1, human CXCR3 (N-delta 4) (Homo sapiens, UniProt P49682) (assay: Human CXCR3 (N-delta 4) scintillation proximity assay (SPA), [125I] IP-10 binding to Ba/F3-hCXCR3 membranes). Details: IC50 rating; [125I] IP-10 displacement, human CXCR3; read-out: IC50.
T1 construct: CD8 leader (N); Flag tag; expressed in transfected cells; membrane preparation
T1 sequence (P49682 5-368 limits assumed): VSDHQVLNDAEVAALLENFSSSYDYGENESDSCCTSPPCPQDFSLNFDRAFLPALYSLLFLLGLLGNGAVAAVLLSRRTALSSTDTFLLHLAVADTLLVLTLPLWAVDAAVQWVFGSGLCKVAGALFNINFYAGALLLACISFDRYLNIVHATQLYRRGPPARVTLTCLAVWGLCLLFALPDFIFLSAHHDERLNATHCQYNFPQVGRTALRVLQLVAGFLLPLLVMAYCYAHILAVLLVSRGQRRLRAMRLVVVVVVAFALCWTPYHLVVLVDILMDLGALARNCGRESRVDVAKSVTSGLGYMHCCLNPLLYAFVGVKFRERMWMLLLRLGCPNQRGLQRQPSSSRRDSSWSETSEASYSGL
Source text: The inventive compounds can readily be evaluated to determine activity at the CXCR3 receptors by known methods, such as, for example, development of a human CXCR3 (N-delta 4) Binding Assay.
The DNA encoding human CXCR3 was cloned by PCR using human genomic DNA (Promega, Madison, Wis.) as a template. The PCR primers were designed based on the published sequence of human orphan receptor GPR9 (1) with incorporated restriction sites, a Kozak consensus sequence, CD8 leader and Flag tag. The PCR product was subcloned into the mammalian expression vector pME18Sneo, a derivative of the SR-alpha expression vector (designated as pME18Sneo-hCXCR3 (N-delta 4).
IL-3-dependent mouse pro-B cells Ba/F3 were transfected by electroporation in 0.4 ml Dulbecco's PBS containing 4×10^6 cells with 20 μg of pME18Sneo-hCXCR3 (N-delta 4) plasmid DNA. Cells were pulsed at 400 Volts, 100 OHMs, 960 μFd. The transfected cells were under selection with 1 mg/ml G418 (Life Technologies, Gaithersburg, Md.). G418-resistant Ba/F3 clones were screened for CXCR3 expression by specific binding of [^125I] IP-10 (NEN Life Science Products, Boston, Mass.).
Ba/F3 cells expressing human CXCR3 (N-delta 4) were pelleted and resuspended in the lysis buffer containing 10 mM HEPES, pH 7.5 and Complete® protease inhibitors (1 tablet per 100 ml) (Boehringer Mannheim, Indianapolis, Ind.) at a cell density of 20×10^6 cells per ml. After 5 minute incubation on ice, cells were transferred to 4639 cell disruption bomb (Parr Instrument, Moline, Ill.) and applied with 1,500 psi of nitrogen for 30 minutes on ice. Large cellular debris was removed by centrifugation at 1,000×g. Cell membrane in the supernatant was sedimented at 100,000×g. The membrane was resuspended in the lysis buffer supplemented with 10% sucrose and stored at −80° C. Total protein concentration of the membrane was determined by BCA method from Pierce (Rockford, Ill.).
Human CXCR3 (N-Delta 4) Scintillation Proximity Assay (SPA):
For each assay point, 2 μg of membrane was preincubated for 1 hr with 300 μg wheat germ agglutinin (WGA) coated SPA beads (Amersham, Arlington Heights, Ill.) in the binding buffer (50 mM HEPES, 1 mM CaCl2, 5 mM MgCl2, 125 mM NaCl, 0.002% NaN3, 1.0% BSA) at room temperature. The beads were spun down, washed once, resuspended in the binding buffer and transferred to a 96-well Isoplate (Wallac, Gaithersburg, Md.). 25 pM of [^125I] IP-10 with tested compounds in a series of titration were added to start the reaction. After 3 hr reaction at room temperature, the amount of [^125I] IP-10 bound to the SPA beads was determined with a Wallac 1450 Microbeta counter.

`CC[C@H]1CN(c2ncc(NS(C)(=O)=O)cc2Cl)CCN1C1CCN(Cc2ccc(Cl)cc2OC)CC1` [Compound 1] and `CC[C@H]1CN(c2ncc(NS(C)(=O)=O)cc2Cl)CCN1C1CCN(Cc2ccc(OC)cc2OC)CC1` [Compound 18] cannot be ordered by IC50: under 25 nM for the first, under 25 nM for the second.

`CC[C@H]1CN(c2ncc(NS(N)(=O)=O)cc2Cl)CCN1C1CCN(Cc2ccc(Cl)cc2F)CC1` [Compound 2] and `CC[C@H]1CN(c2ncc(NS(C)(=O)=O)cc2Cl)CCN1C1CCN(Cc2ccc(Cl)cc2F)CC1` [Compound 7] cannot be ordered by IC50: under 25 nM for the first, under 25 nM for the second.

`CC[C@H]1CN(c2ncc(NS(N)(=O)=O)cc2Cl)CCN1C1CCN(C(CO)c2ccc(Cl)cc2)CC1` (stereo partly shown) [Compound 3] and `CC[C@H]1CN(c2ncc(NS(C)(=O)=O)cc2Cl)CCN1C1CCN([C@H](CO)c2ccc(Cl)cc2)CC1` [Compound 4] cannot be ordered by IC50: under 25 nM for the first, under 25 nM for the second.

`CC[C@H]1CN(c2ncc(NS(C)(=O)=O)cc2Cl)CCN1C1CCN(Cc2ccc(Br)cc2)CC1` [Compound 5] and `CC[C@H]1CN(c2ncc(NS(C)(=O)=O)cc2Cl)CCN1C1CCN(Cc2ccc(Cl)cc2)CC1` [Compound 6] cannot be ordered by IC50: under 25 nM for the first, under 25 nM for the second.

Compared with `CC[C@H]1CN(c2ncc(NS(C)(=O)=O)cc2Cl)CCN1C1CCN(Cc2ccc(Br)cc2F)CC1` [Compound 8], `CC[C@H]1CN(c2ncc(NS(C)(=O)=O)cc2Cl)CCN1C1CCN(Cc2ccc(Cl)cc2O)CC1` [Compound 34] is higher in IC50: under 25 nM for the first, 25 to 100 nM for the second.

`CC[C@H]1CN(c2ncc(NS(C)(=O)=O)cc2Cl)CCN1C1CCN(Cc2ccc(Cl)cc2N)CC1` [Compound 9] and `CC[C@H]1CN(c2ncc(NS(C)(=O)=O)cc2Cl)CCN1C1CCN(Cc2ccc(Cl)cc2NC)CC1` [Compound 14] cannot be ordered by IC50: under 25 nM for the first, under 25 nM for the second.

First: CC[C@H]1CN(c2ncc(NS(C)(=O)=O)cc2Cl)CCN1C1CCN(Cc2ccc(OC(F)(F)F)cc2)CC1 [Compound 10]
Second: C[C@H]1CN(c2ncc(NS(C)(=O)=O)cc2Cl)CCN1C1CCN(Cc2ccc(OC(F)(F)F)cc2)CC1 [Compound 38]
The IC50 of the first is lower: under 25 nM for the first, 25 to 100 nM for the second.

`CC[C@H]1CN(c2ncc(NS(C)(=O)=O)cc2Cl)CCN1C1CCN(C(CO)c2ccc(Cl)cc2)CC1` (stereo partly shown) [Compound 11] and `CC[C@H]1CN(c2ncc(NS(C)(=O)=O)cc2Cl)CCN1C1CCN(C(C(N)=O)c2ccc(Cl)cc2)CC1` (stereo partly shown) [Compound 12] cannot be ordered by IC50: under 25 nM for the first, under 25 nM for the second.

First: CC[C@H]1CN(c2ncc(NS(C)(=O)=O)cc2Cl)CCN1C1CCN(Cc2ccc(OC(F)F)cc2)CC1 [Compound 13]
Second: CC[C@H]1CN(c2ncc(NS(C)(=O)=O)cc2Cl)CCN1C1CCN(Cc2ccc(F)cc2)CC1 [Compound 25]
The IC50 of the first is lower: under 25 nM for the first, 25 to 100 nM for the second. The first is the more potent here.

First: CC[C@H]1CN(c2ncc(NS(=O)(=O)CC)cc2Cl)CCN1C1CCN(C(N)c2ccc(Cl)cc2F)CC1 (stereo partly shown) [Compound 15]
Second: CC[C@H]1CN(c2ncc(NS(=O)(=O)C(C)C)cc2Cl)CCN1C1CCN(Cc2ccc(Cl)cc2F)CC1 [Compound 29]
The IC50 of the first is lower: under 25 nM for the first, 25 to 100 nM for the second.

First: CC[C@H]1CN(c2ncc(NS(N)(=O)=O)cc2Cl)CCN1C1CCN([C@H](C(=O)OC)c2ccc(Cl)cc2)CC1 [Compound 16]
Second: CC[C@H]1CN(c2ncc(NS(C)(=O)=O)cc2Cl)CCN1C1CCN(C(C(=O)OC)c2ccc(Cl)cc2)CC1 (stereo partly shown) [Compound 27]
The IC50 of the first is lower: under 25 nM for the first, 25 to 100 nM for the second. The first is the more potent here.

`CC[C@H]1CN(c2ncc(NS(=O)(=O)N(C)C)cc2Cl)CCN1C1CCN(Cc2ccc(Cl)cc2F)CC1` [Compound 17] and `CC[C@H]1CN(c2ncc(NS(=O)(=O)C3CC3)cc2Cl)CCN1C1CCN(Cc2ccc(Cl)cc2F)CC1` [Compound 22] cannot be ordered by IC50: under 25 nM for the first, under 25 nM for the second.

Compared with `CC[C@H]1CN(c2ncc(NS(C)(=O)=O)cc2Cl)CCN1C1CCN(Cc2ccc(C)cc2)CC1` [Compound 19], `CC[C@H]1CN(c2ncc(NS(C)(=O)=O)cc2Cl)CCN1C1CCN(Cc2ccc(N(C)C)cc2)CC1` [Compound 45] is higher in IC50: under 25 nM for the first, over 100 nM for the second.

First: CC[C@H]1CN(c2ncc(NS(C)(=O)=O)cc2Cl)CCN1C1CCN(Cc2ccc(C)cc2C)CC1 [Compound 20]
Second: Cc1ccc(CN2CCC(N3CCN(c4ncc(NS(C)(=O)=O)cc4Cl)C[C@@H]3C)CC2)c(C)c1 [Compound 49]
The IC50 of the first is lower: under 25 nM for the first, over 100 nM for the second. The first is the more potent here.

First: CC[C@H]1CN(c2ncc(NS(C)(=O)=O)cc2Cl)CCN1C1CCN(Cc2ccc(F)c(F)c2)CC1 [Compound 21]
Second: CC[C@H]1CN(c2ncc(NS(C)(=O)=O)cc2Cl)CCN1C1CCN(Cc2c(F)cc(F)cc2F)CC1 [Compound 47]
The IC50 of the first is lower: under 25 nM for the first, over 100 nM for the second.

First: CC[C@H]1CN(c2ncc(NS(C)(=O)=O)cc2Cl)CCN1C1CCN(Cc2ccc(Cl)cc2C#N)CC1 [Compound 23]
Second: CC[C@H]1CN(c2ncc(NS(C)(=O)=O)cc2Cl)CCN1C1CCN(Cc2ccc(Cl)cc2[N+](=O)[O-])CC1 [Compound 28]
The IC50 of the first is lower: under 25 nM for the first, 25 to 100 nM for the second. The first is the more potent here.

`CC[C@H]1CN(c2ncc(NS(C)(=O)=O)cc2Cl)CCN1C1CCN(C(=O)c2ccc(Cl)cc2N)CC1` [Compound 24] and `CC[C@H]1CN(c2ncc(NS(C)(=O)=O)cc2Cl)CCN1C1CCN(C(=O)c2ccc(Cl)nc2N)CC1` [Compound 31] fall in the same range of IC50: 25 to 100 nM for the first, 25 to 100 nM for the second.

First: CC[C@H]1CN(c2ncc(NS(C)(=O)=O)cc2Cl)CCN1C1CCN(Cc2ccc(Cl)s2)CC1 [Compound 26]
Second: CC[C@H]1CN(c2ncc(NS(C)(=O)=O)cc2Cl)CCN1C1CCN(Cc2cc(Br)cs2)CC1 [Compound 44]
The IC50 of the first is lower: 25 to 100 nM for the first, over 100 nM for the second.

First: CC[C@H]1CN(c2ncc(NS(C)(=O)=O)cc2Cl)CCN1C1CCN(Cc2ccc(Cl)cc2C(=O)OC)CC1 [Compound 30]
Second: CC[C@H]1CN(c2ncc(NS(C)(=O)=O)cc2Cl)CCN1C1CCN(Cc2ccc(Cl)cc2NS(C)(=O)=O)CC1 [Compound 52]
The IC50 of the first is lower: 25 to 100 nM for the first, over 100 nM for the second. The first is the more potent here.

Compared with `C[C@H]1CN(c2ncc(NS(C)(=O)=O)cc2Cl)CCN1C1CCN(Cc2ccc(Cl)cc2)CC1` [Compound 32], `C[C@H]1CN(c2ncc(NS(C)(=O)=O)cc2Cl)CCN1C1CCN(Cc2ccc(C#N)cc2)CC1` [Compound 53] is higher in IC50: 25 to 100 nM for the first, over 100 nM for the second. The first is the more potent here.

First: CC[C@H]1CN(c2ncc(NS(N)(=O)=O)cc2Cl)CCN1C1CCN(C(=O)c2ccc(Cl)cc2)CC1 [Compound 33]
Second: CC[C@H]1CN(c2ncc(NS(C)(=O)=O)cc2Cl)CCN1C1CCN(C(=O)c2ccc(Cl)cc2)CC1 [Compound 51]
The IC50 of the first is lower: 25 to 100 nM for the first, over 100 nM for the second.

First: CC[C@H]1CN(c2ncc(NS(N)(=O)=O)cc2Cl)CCN1C1CCN([C@H](C(N)=O)c2ccc(Cl)cc2)CC1 [Compound 35]
Second: CCC(=O)[C@@H](c1ccc(Cl)cc1)N1CCC(N2CCN(c3ncc(NS(N)(=O)=O)cc3Cl)C[C@@H]2CC)CC1 [Compound 41]
The IC50 of the first is lower: 25 to 100 nM for the first, over 100 nM for the second. The first is the more potent here.

Compared with `CC[C@H]1CN(c2ncc(NS(C)(=O)=O)cc2Cl)CCN1C1CCN(Cc2ccc(Cl)cc2-c2nnn[nH]2)CC1` [Compound 36], `CC[C@H]1CN(c2ncc(NS(C)(=O)=O)cc2Cl)CCN1C1CCN(Cc2cc3ccccc3o2)CC1` [Compound 48] is higher in IC50: 25 to 100 nM for the first, over 100 nM for the second.

First: CC[C@H]1CN(c2ncc(NS(C)(=O)=O)cc2Cl)CCN1C1CCN(C(C(=O)OC)c2ccc(Cl)cc2)CC1 (stereo partly shown) [Compound 39]
Second: CC[C@H]1CN(c2ncc(NS(C)(=O)=O)cc2Cl)CCN1C1CCN(Cc2ccc(C(=O)OC)cn2)CC1 [Compound 42]
The IC50 of the first is lower: 25 to 100 nM for the first, over 100 nM for the second.

`CC[C@H]1CN(c2ncc(NS(C)(=O)=O)cc2Cl)CCN1C1CCN(Cc2cc(C)c(C)s2)CC1` [Compound 43] and `CC[C@H]1CN(c2ncc(NS(=O)(=O)c3ccc(Cl)cc3)cc2Cl)CCN1C1CCN(Cc2ccc(Cl)cc2F)CC1` [Compound 46] cannot be ordered by IC50: over 100 nM for the first, over 100 nM for the second.

`C[C@@H]1CN(C2CCN(Cc3ccc(Cl)cc3F)CC2)[C@@H](C)CN1c1ncc(NS(C)(=O)=O)cc1Cl` [Compound 50] gave an IC50 of over 100 nM.

Same assay, conditions: value given in the text as example; read-out: IC50 value

Compound `CC[C@H]1CN(c2ncc(NS(C)(=O)=O)cc2Cl)CCN1C1CCN(Cc2ccc(Cl)cc2OC)CC1` [Compound 1] has an IC50 of 0.8 nM.
